# Measured values taken from patent publication US12161647B2, “Treating hearing loss” (Massachusetts Eye and Ear Infirmary, priority 2012, dated 2024).
# Test system: organ of Corti explants from Pou4f3-Cre; Mos-iCsp3 double transgenic mice
# Test: Organ of Corti explants after dimerizer-induced hair cell ablation
# Assay type: cell-based, mouse
# Description: For the experiments using inner ear spheres, C57BL/6 (Jackson Labs) or Math1-nGFP reporter mouse (19) (a gift from Jane Johnson, University of Texas) of both sexes were used. To create organ of Corti explants with ablated hair cells, Mos-iCsp3 mice (20) were crossed with Pou4f3-Cre mice (6) (a gift from Douglas Vetter, Tufts University). For all in vivo experiments, we used 4-week-old Cre reporter line, mT/mG (Jackson Labs), crossed to a Sox2-CreER mouse (47) (a gift from Konrad Hochedlinger, Mass General Hospital). After genotyping, double transgenic animals were used for lineage tracing. We used young adult wild-type littermates of the mT/mG; Sox2-CreER mice to prevent strain effects in the response to noise, which are known to vary depending on background (22, 48). Mice were genotyped by PCR. […]
# For explants, the organs of Corti were fixed for 15 min with 4% paraformaldehyde in PBS. […] Primary antibodies were detected with secondary antibodies conjugated with Alexa 488 and 647 (Molecular Probes). The samples were stained with rhodamine phalloidin (Invitrogen) for 15 min and viewed by confocal fluorescence microscopy (TCS SP5, Leica).
# Cell counting for spheres was performed with MetaMorph software. The cell number was determined from DAPI- or Hoechst-positive nuclei. […] For explants, inner hair cells, outer hair cells, and supporting cells in the outer hair cell region were counted on cochlear whole mounts. […] High-power images of the full-length cochlea or cochlear explant cultures were assembled and analyzed in PhotoShop CS4 (Adobe). ImageJ software (NIH) was used to measure the total length of cochlear whole mounts and the length of individual counted segments. The total number of inner hair cells, outer hair cells, and supporting cells in the outer hair cell region was counted in each of four cochlear segments of 1200-1400 μm (apical, mid-apical, mid-basal, and basal). Density (cells per 100 μm) was then calculated for each segment. […] The number of Sox2-lineage-positive cells identified by GFP was counted by the same method. […]
smiles,measurement,setting,value
"C[C@H](NC(=O)[C@@H](O)c1cc(F)cc(F)c1)C(=O)N[C@@H]1C(=O)N(C)c2ccccc2-c2ccccc21 [LY411575, N-2((2S)-2-(3,5-difluorophenyl)-2-hydroxyethanoyl)-N1-((7S)-5-methyl-6-oxo-6,7-dihydro-5H-dibenzo[b,d]azepin-7-yl)-l-alaninamide]",number of inner hair cells,any group,no significant differences
same,number of myosin VIIa-positive (hair) cells in the outer hair cell region,"hair cell-ablated explants, cultured 3 d, p<0.05",increased
same,number of Sox2-positive (supporting) cells,"mid-apex and mid-base of the cochlea, p<0.05",decrease
